Data published in patent publication US20060194259A1, “Method for isolating an allosteric effector of a receptor” (priority 2002, published 2006).
Each block holds one compound with its values, some of them ahead of it.

What was measured:
receptor EGFP-NK2R [1] = molecular target: T1, receptor EGFP-NK2R (UniProt P16610); assay: Dissociation of NKA4-10 TR7 from EGFP-NK2R by fluorescence energy transfer; format: binding; design: % al (max): maximum value observed for the increase in amplitude of the rapid dissociation rate; ns = n; other: 20 nM of NK; % al (at 10 μM); other: compou; fused on or other part: EGFP fused to the receptor as FRET donor; conditions: 10° C.; without 805
T1 sequence (P16610 1-390): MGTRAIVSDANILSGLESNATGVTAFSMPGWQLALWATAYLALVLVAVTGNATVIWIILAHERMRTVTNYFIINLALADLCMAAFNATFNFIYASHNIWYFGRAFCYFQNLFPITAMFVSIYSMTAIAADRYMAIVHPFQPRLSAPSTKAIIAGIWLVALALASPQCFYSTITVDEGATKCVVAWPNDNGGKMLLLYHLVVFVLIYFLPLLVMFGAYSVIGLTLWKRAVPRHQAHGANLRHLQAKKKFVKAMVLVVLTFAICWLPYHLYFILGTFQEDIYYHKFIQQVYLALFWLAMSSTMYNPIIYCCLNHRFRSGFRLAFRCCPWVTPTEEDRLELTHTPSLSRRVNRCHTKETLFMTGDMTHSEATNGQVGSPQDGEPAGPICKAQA
Experimental: (§1) The x-axis represents time in seconds and the y-axis represents fluorescence.
(§2) In the presence of 10 μM of 805, an acceleration of the dissociation is observed characterized by a modification of the amplitudes of the rapid (88%) and slow (12%) dissociation stages.

receptor EGFP-NK2R [2] = molecular target: T2, receptor EGFP-NK2R (Homo sapiens, UniProt P21452); assay: Calcium response caused by NKA 4-10 TR7 in HEK 293 cells expressing EGFP-NK2R (indo-1); format: cell-based; conditions: read-out: 50%-effective dose of NKA 4-10 TR7 for the calcium response; without 805
T2 sequence (P21452 1-398): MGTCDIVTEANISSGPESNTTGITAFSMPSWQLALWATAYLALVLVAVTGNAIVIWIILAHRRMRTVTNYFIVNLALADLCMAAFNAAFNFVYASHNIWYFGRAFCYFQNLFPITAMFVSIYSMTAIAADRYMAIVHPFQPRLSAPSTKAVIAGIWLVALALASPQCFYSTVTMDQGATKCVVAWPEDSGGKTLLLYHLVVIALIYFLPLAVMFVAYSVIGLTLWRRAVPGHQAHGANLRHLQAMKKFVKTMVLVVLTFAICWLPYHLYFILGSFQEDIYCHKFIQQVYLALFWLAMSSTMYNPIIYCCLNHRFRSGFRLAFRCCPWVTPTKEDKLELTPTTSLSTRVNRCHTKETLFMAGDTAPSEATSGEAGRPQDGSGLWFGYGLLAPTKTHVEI
Experimental: The cells are put into suspension at a rate of 500,000 cells/ml in Hepes buffer and arranged in a spectrofluorimeter cuvette. The excitation wavelength is fixed at 355 nm and the emission is recorded at […].

receptor EGFP-NK2R [3] = molecular target: T2, receptor EGFP-NK2R; assay: Dissociation of NKA4-10 TR7 from EGFP-NK2R by fluorescence energy transfer; format: binding; conditions: 10° C.; without 805
Experimental: as §1, §2

[4] = tested on: cells not expressing the EGFP-NK2R receptor; assay: Calcium response on cells not expressing the receptor; format: cell-based; design: key: ns: not significant; ?: uniterpretable; conditions: Table 1
receptor EGFP-NK2R [5] = molecular target: T1, receptor EGFP-NK2R; assay: Dissociation kinetics of NKA-Bo bound to EGFP-NK2R by fluorescence energy transfer; format: binding; design: % al (max): maximum value observed for the increase in amplitude of the rapid dissociation rate; ns = n; other: 20 nM of NK; % al (at 10 μM); other: compou; fused on or other part: EGFP fused to the receptor as FRET donor
Experimental: Dissociation (FIG. 4B): HEK 293 cells expressing the receptor EGFP-NK2R are put into suspension at a concentration of 1,000,000 cells/ml in Hepes physiological buffer (in mM: 137.5 NaCl; 1.25 MgCl2; 1.25 CaCl2; 6 KCl; 5.6 glucose; 10 Hepes; 0.4 NaH2PO4; 1% BSA (w/v); pH 7.4) and arranged in a 1 ml cuvette equipped with a magnetic stirrer on the cuvette holder of a SPEX fluorolog 3 spectrofluorimeter.
(§3) The amplitude of each relaxation is then given by the adjustment of the experimental traces.

receptor EGFP-NK2R [6] = molecular target: T1, receptor EGFP-NK2R; assay: Reversion of the binding of NKA-Bo to EGFP-NK2R by fluorescence energy transfer; design: % al (max): maximum value observed for the increase in amplitude of the rapid dissociation rate; ns = n; other: 20 nM of NK; % al (at 10 μM); other: compou; fused on or other part: EGFP fused to the receptor as FRET donor; conditions: 20 nM NKA-Bo; increasing concentration of compound; 100% = NKA 10 μM
From the text: as §3

receptor EGFP-NK2R [7] = molecular target: T1, receptor EGFP-NK2R; assay: Association kinetics of NKA-Bo with EGFP-NK2R by fluorescence energy transfer (rapid mixing); format: binding; design: % al (max): maximum value observed for the increase in amplitude of the rapid dissociation rate; ns = n; other: 20 nM of NK; % al (at 10 μM); other: compou; fused on or other part: EGFP fused to the receptor as FRET donor
From the text: Association (FIG. 4A): HEK 293 cells expressing the receptor EGFP-NK2R (NK2R marked with GFP) are put into suspension at a concentration of 2,000,000 cells/ml in Hepes physiological buffer (in mM: 137.5 NaCl; 1.25 MgCl2; 1.25 CaCl2; 6 KCl; 5.6 glucose; 10 Hepes; 0.4 NaH2PO4; 1% BSA (w/v); pH 7.4) and arranged in one of the reservoirs of the rapid mixing device. […] The observation chamber is arranged in a SPEX fluorolog 3 spectrofluorimeter. The temperature of the reservoir of the syringes as well as of the mixing and observation chamber is fixed at 21° C. The excitation wavelength of the observation chamber is fixed at 470 nm, and the fluorescence emission wavelength is fixed at 510 nm. The sampling frequency of the experimental points is fixed at 50 Hz (1 point every 20 msec). The content of the reservoirs is driven towards the mixing and observation chamber using a pneumatic device allowing a flow rate of 4 ml/sec and the evolution of the mixture is recorded continuously from the moment of stopping of the thrust of the pistons of the reservoirs. The reaction of association of NKA-Bo with the receptor EGFP-NK2R is detected in the form of a reduction in the intensity of fluorescence of the GFP carried by the receptor NK2R. The experimental trace is adjusted by a multiexponential curve of type y=λ1 exp (−k1app×T)+λ2 exp (−k2app×T)+“straight”, where λ1 and λ2 are the amplitudes of the rapid and slow relaxations, k1app and k2app are the apparent rate constants of rapid and slow association, T is time and “straight” is a mathematical correction of the signal drift. The values of λ1, λ2, k1app, k2app for a final concentration of NKA-BO of 100 nM are respectively 67%; 32%; 0.6 sec^−1 and 0.03 sec^−1. The correlation coefficient of the adjustment of the experimental curve is R=0.989.
The rapid binding of NKA-Bo, recorded at a concentration of 20 nM using the rapid mixing equipment, is broken down into a sum of two exponentials the rates (kapp) of which differ by a factor of 10. The rapid binding of NKA-Bo (kapp=0.095 sec^−1) represents 44% of the total binding signal, in the absence of A11 (50 μM), whereas it represents 52% of the total signal in the presence of A11. The slow binding is carried out in both cases with an apparent rate (kapp) equal to 0.0095 sec^−1, and an amplitude equal to […] in the absence of A11, and 48% in the presence of A11.

[8] = in the presence of 50 μM compound, dissociation by non-fluorescent NKA
[9] = 20 nM NKA-Bo, 10 μM SR 48968, no effector

Compound: NKA4-10 TR7: truncated neurokinin NKA4-10 marked in position 7 by Texas Red
amplitude of the slow dissociation of NKA4-10 TR7 (receptor EGFP-NK2R [1]): 42% | EC50 (receptor EGFP-NK2R [2]): ~0.02 µM | amplitude of the rapid dissociation of NKA4-10 TR7 (receptor EGFP-NK2R [3]): 58%

% al (max): maximum value observed for the increase in amplitude of the rapid dissociation rate (receptor EGFP-NK2R [5]; Table 1, ns = not significant): ≧90% | fraction of receptors in the low-affinity state (receptor EGFP-NK2R [5]; at 100 μM of effector, approximately 25% in the absence of effector): ~100% | effect on the dissociation kinetics of NKA-Bo (receptor EGFP-NK2R [5]; dissociation by non-fluorescent NKA in the presence of compound): accelerating the dissociation rate | amplitude of the rapid dissociation of NKA-Bo (% of total signal) (receptor EGFP-NK2R [5]; [8]): 78% | amplitude of the slow dissociation of NKA-Bo (% of total signal) (receptor EGFP-NK2R [5]; [8]): 22% | EC50 (receptor EGFP-NK2R [5]; read-out: EC50 (μM): concentration of compound causing a 50% increase (relative to the maximum value) in the percentage of the amplitude of the rapid dissociation rate, Table 1, dissociation of NKA-Bo from EGFP-NK2R, ns = not significant): 38 to 44 µM | fraction of the NKA-Bo bound to its site displaced by the compound (receptor EGFP-NK2R [6]): 29% | rapid binding of NKA-Bo, % of the total binding signal (receptor EGFP-NK2R [7]; 20 nM NKA-Bo, in the presence of A11 (50 μM), 44% in its absence): 52% | slow binding of NKA-Bo, amplitude (receptor EGFP-NK2R [7]; 20 nM NKA-Bo, in the presence of A11 (50 μM), 66% in its absence): 48%
Compound: N#CCN(Cc1ccc(N)cc1)Cc1ccc2ccccc2c1 [A11, [(4-Amino-benzyl)-naphthalen-2-ylmethyl-amino]-acetonitrile]
Ca Rep.: ability to evoke a calcium response on cells not expressing the EGFP-NK2R receptor [4]: ns

Compound: CSCC[C@H](NC(=O)[C@H](CC(C)C)NC(=O)CNC(=O)[C@@H](NC(=O)[C@H](Cc1ccccc1)NC(=O)[C@H](CO)NC(=O)[C@H](CC(=O)O)NC(=O)[C@@H](NC(=O)[C@H](CCCCN)NC(=O)[C@H](Cc1c[nH]cn1)NC(=O)CCc1ccc2n1[B-](F)(F)[N+]1=C(c3ccccc3)C=C(c3ccccc3)C1=C2)[C@@H](C)O)C(C)C)C(N)=O [NKA-Bo]
λ1, amplitude of rapid dissociation of NKA-Bo (receptor EGFP-NK2R [5]; [9]): 40% | λ2, amplitude of slow dissociation of NKA-Bo (receptor EGFP-NK2R [5]; [9]): 58% | k1app, apparent rate constant of rapid association (receptor EGFP-NK2R [7]; NKA-BO 100 nM final, 21° C.): 0.6 s⁻¹ | k2app, apparent rate constant of slow association (receptor EGFP-NK2R [7]; NKA-BO 100 nM final, 21° C.): 0.03 s⁻¹ | λ1, amplitude of the rapid association relaxation (receptor EGFP-NK2R [7]; NKA-BO 100 nM final, 21° C.): 67% | λ2, amplitude of the slow association relaxation (receptor EGFP-NK2R [7]; NKA-BO 100 nM final, 21° C.): 32% | kapp of the rapid binding of NKA-Bo (receptor EGFP-NK2R [7]; NKA-Bo 20 nM): 0.095 s⁻¹ | kapp of the slow binding of NKA-Bo (receptor EGFP-NK2R [7]; NKA-Bo 20 nM, with or without A11): 0.0095 s⁻¹
